Reference: patent US8420636B2, “Pyrrolidinyl-alkyl-amide derivatives, their preparation, and their therapeutic application as CCR3 receptor ligands” (Sanofi, priority 2008, dated 2013)
Like-named read-outs stand apart in the source and are kept apart here.

Columns and labels:
hCCR3 = target: T1, hCCR3 (Homo sapiens, UniProt P51677); assay: Ca2+ mobilization in hCCR3-RBL and hCCR3 K562 cells (test B); type: cell-based
T1 construct: expressed in transfected cells; host or cells: K562 and RBL2H3 cells
T1 sequence (P51677 1-355): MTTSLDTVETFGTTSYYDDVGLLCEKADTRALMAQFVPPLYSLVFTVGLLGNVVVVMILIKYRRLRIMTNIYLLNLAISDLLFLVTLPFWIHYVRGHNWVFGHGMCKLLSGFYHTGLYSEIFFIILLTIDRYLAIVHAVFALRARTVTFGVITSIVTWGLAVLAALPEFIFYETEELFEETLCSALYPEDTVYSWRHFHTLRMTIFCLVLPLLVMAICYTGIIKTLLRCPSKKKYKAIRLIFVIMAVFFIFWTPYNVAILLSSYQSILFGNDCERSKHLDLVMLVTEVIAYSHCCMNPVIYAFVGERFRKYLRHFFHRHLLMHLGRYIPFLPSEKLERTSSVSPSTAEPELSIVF
Protocol: B.) Investigation of Ca^2+ Mobilization in hCCR3-RBL and hCCR3 K562 Cells
HCCR3-K562 and hCCE3-RBL2H3 cells in 40,000 cells/well density (number of cells in one well of the microplate) are cultured for 24 hours. The cells are washed and loaded with calcium indicator dye (Calcium Plus assay Kit, Molecular Devices). The cells are incubated in the presence of the dye for 60 minutes while loading takes place. The dye is a fluorescent calcium indicator, which sensitively indicates the intracellular calcium concentration. The intracellular calcium concentration is in direct ratio with the fluorescent signal of the sample. The experiments are performed in a BMG NOVOSTAR apparatus, at […].
The selective agonists used in the experiments are:
In the experiments an agonist concentration is used which causes a 75% calcium signal compared to the maximum attainable signal.
Antagonists are added 15 minutes before the agonist treatment.
The change of the fluorescent signal is monitored for 30 seconds, during that period the process takes place.
The intensity of the maximum calcium signal following the addition of the agonist is compared with the calcium signal obtained after the addition of the same agonist, but in the presence of the inhibitor.
The activity of the compounds is characterized with the IC50 values.

[1] = test B, inhibition of agonist-induced calcium signal in hCCR3-K562 / hCCR3-RBL2H3 cells, antagonist added 15 minutes before agonist, read-out: IC50

Row | Compound | melting point | IC50 (hCCR3) | IC50 (hCCR3; [1])
1 | Cc1ccc2nc(CCC(=O)NCCCN3CCCC3c3ccc(Cl)c(Cl)c3)sc2c1 (centres unmarked) | 76 to 79 °C | – | –
2 | N-{3-[2-(3,4-dichlorophenyl)-1-oxidopyrrolidin-1-yl]propyl}-3-(5-morpholin-4-yl[1,3]thiazolo[4,5-b]pyridin-2-yl)propionamide [Example 21] | – | – | 82.5 nM
3 | Cc1ccc2nc(CCC(=O)NCCCN3CCCC3c3ccc(Cl)c(Cl)c3)sc2n1 (centres unmarked) | 125 to 130 °C | – | –
4 | CNc1ccc2nc(CCC(=O)NCCCN3CCCC3c3ccc(Cl)c(Cl)c3)sc2n1 (centres unmarked) [Example 2, N-{3-[2-(3,4-dichlorophenyl)pyrrolidin-1-yl]propyl}-3-(5-(methylamino)[1,3]thiazolo[5,4-b]pyridin-2-yl)propionamide] | 119 to 121 °C | 18 nM | –
5 | CCNC(=O)N[N+]1(CCCNC(=O)CCc2nc3nc(N4CC(C)OC(C)C4)ccc3s2)CCCC1c1ccc(Cl)c(Cl)c1.Cl (centres unmarked) | 115 to 118 °C | – | –
6 | 1-Amino-2-(3,4-dichlorophenyl)-1-(3-{[3-(5-pyrrolidin-1-yl[1,3]thiazolo[4,5-b]pyridin-2-yl)propanoyl]amino}propyl)pyrrolidinium tosylate [Example 14] | – | – | 1 nM
7 | O=C(CCc1nc2nc(N3CCCC3)ccc2s1)NCCC[N+]1([O-])CCCC1c1ccc(Cl)c(Cl)c1 (centres unmarked) | 185 to 188 °C | – | –
8 | 1-(Acetylamino)-2-(3,4-dichlorophenyl)-1-(3-{[3-(5-piperidin-1-yl[1,3]thiazolo[4,5-b]pyridin-2-yl)propanoyl]amino}propyl)pyrrolidinium hydrochloride [Example 23] | – | – | 13 nM

Further lines, with some results ahead:

Row | melting point | IC50 (hCCR3) | Compound | IC50 (hCCR3; [1])
9 | 111 to 112 °C | 0.9 nM | O=C(CCc1nc2ccc(N3CCOCC3)nc2s1)NCCCN1CCCC1c1ccc(Cl)c(Cl)c1 (centres unmarked) [Example 5, N-{3-[2-(3,4-dichlorophenyl)pyrrolidin-1-yl]propyl}-3-(5-morpholin-4-yl[1,3]thiazolo[5,4-b]pyridin-2-yl)propionamide] | –
10 | 137 to 138 °C | 5 nM | O=C(CCc1nc2ccc(N3CCCC3)nc2s1)NCCCN1CCCC1c1ccc(Cl)c(Cl)c1 (centres unmarked) [Example 3, N-{3-[2-(3,4-dichlorophenyl)pyrrolidin-1-yl]propyl}-3-(5-pyrrolidin-1-yl[1,3]thiazolo[5,4-b]pyridin-2-yl)propionamide] | –
11 | – | 1.6 nM | CC1CN(c2ccc3nc(CCC(=O)NCCCN4CCCC4c4ccc(Cl)c(Cl)c4)sc3n2)CC(C)O1 (centres unmarked) [Example 11, N-{3-[2-(3,4-dichlorophenyl)pyrrolidin-1-yl]propyl}-3-(5-(2,6-dimethylmorpholin-4-yl)[1,3]thiazolo[5,4-b]pyridin-2-yl)propionamide] | –
12 | 105 °C | 3.9 nM | O=C(CCc1nc2ncc(N3CCCCC3)nc2s1)NCCCN1CCCC1c1ccc(Cl)c(Cl)c1 (centres unmarked) [Example 9] | –
13 | 185 to 187 °C | 13 nM | O=C(CCc1nc2ccc(N3CCCCC3)nc2s1)NCCC[N+]1([O-])CCCC1c1ccc(Cl)c(Cl)c1 (centres unmarked) [Example 20] | –
14 | 93 to 95 °C | 3.4 nM | O=C(CCc1nc2ccc(N3CCCCC3)nc2s1)NCCCN1CCCC1c1ccc(Cl)c(Cl)c1 (centres unmarked) [Example 4, N-{3-[2-(3,4-dichlorophenyl)pyrrolidin-1-yl]propyl}-3-(5-piperidin-1-yl[1,3]thiazolo[5,4-b]pyridin-2-yl)propionamide] | –
